Holding throughout (assay): NCI anticancer screen, dose series, 48 h
Experiment [1] has as its system PC-3 prostate.
For experiment [2], the system named is SN12C renal.
Experiment [3] has as its system SF-539 CNS.
For experiment [4], the system named is EKVX NSCLC.
Experiment [5] deals with NCI-H522 lung.
In experiment [6] the test system is A498 renal.
Experiment [7] has as its system TK-10 renal.
For experiment [8], the system named is HT29 colon.
For experiment [9], the system named is NCI/ADR-RES ovarian.
Experiment [10] deals with COLO 205 colon.

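Values below derive from 48-hour exposures of cells grown in 96-well plates, with endpoints linearly interpolated between the two concentrations bracketing the appropriate inhibition level. GI50 is the concentration that inhibits growth by half. TGI is the concentration that stops growth completely.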 Some results are limits rather than exact numbers.

In the case of `COP(=O)(OC)C12CCOCCN1c1ccccc1C2=O` (stereo not drawn), the TGI in [1], in experiment [2], in experiment [3], in experiment [4], in [5] and in experiment [6] was above 100 µM in each case. In addition, the TGI in [7], in experiment [8], in experiment [9] and in experiment [10] was above 100 µM in each case.

`O=C1CC(Sc2nc3ccc(I)cc3c(=O)n2Cc2ccccc2)C(=O)NN1` (stereo not drawn): the TGI was 30.7 µM in experiment [1]; 27.6 µM in experiment [2]; 35.5 µM in [3]; 31.8 µM in experiment [4]; 4.26 µM in experiment [5]; 29.7 µM in experiment [6]. The TGI in [7] was determined as 30.5 µM; in [8], 38.6 µM; in experiment [9] it was 52.1 µM; in experiment [10], 34.5 µM.

As to `Cc1cn2c(C)csc2c1P(=O)(OC(C)C)OC(C)C`, the TGI in experiment [1], in experiment [2], in [3], in [4], in experiment [5] and in experiment [6] was above 100 µM throughout. The TGI in experiment [7], in experiment [8], in experiment [9] and in experiment [10] was above 100 µM in each case.

Consider `Cc1cc2nc(-c3cc(C(C)(C)C)c(O)c(C(C)(C)C)c3)[nH]c2cc1C`, for which the TGI in [1], in experiment [2], in experiment [3], in experiment [4], in experiment [5] and in experiment [6] was above 100 µM in each case. The TGI in experiment [7], in experiment [8], in experiment [9] and in experiment [10] was above 100 µM in each case.

Consider `COc1ccc(N=C2C(=S)N(c3ccc(OC)cc3)/C(=N/S(=O)(=O)c3ccccc3)N2c2ccccc2)cc1`, for which the TGI in experiment [1] was 11.1 µM; in experiment [2] it was 32.4 µM; in experiment [3], 25.1 µM; in experiment [4], 31.8 µM; in experiment [5], 4.24 µM; in experiment [6], above 100 µM. Besides, the TGI was 28.3 µM in experiment [7], above 64.4 µM in [8], above 71.4 µM in [9] and 24.8 µM in [10].

With `Cc1cc2c(nn1)-c1ccccc1C2=O`, the TGI in [1], in experiment [2], in experiment [3], in [4], in experiment [5] and in experiment [6] was above 10 µM each time. Also, the TGI in experiment [7], in experiment [8], in [9] and in experiment [10] was above 10 µM each time.

As for `COc1cc(CC(C)N)ccc1O` (stereo not drawn), the TGI in experiment [1], in experiment [2], in experiment [3], in experiment [4], in experiment [5] and in [6] was above 100 µM throughout. Besides, the TGI in [7], in experiment [8], in experiment [9] and in [10] was above 100 µM throughout.

Regarding `COc1ccc(N=NC(=Nc2ccc(F)cc2)c2ccc(N(CCC#N)CCC#N)cc2)cc1`, the TGI is 58.9 µM in [1]; above 100 µM in experiment [2]; above 100 µM in [3]; above 100 µM in experiment [4]; 47 µM in [5]; 76.3 µM in [6]. Moreover, the TGI in [7], in experiment [8], in experiment [9] and in experiment [10] was above 100 µM each time.

As for `COC(=O)C1(Cc2ccc3c(c2)CCC3)Cc2cc3c(cc2C1)CCC3`, the TGI was above 100 µM in [1]; above 100 µM in experiment [2]; above 100 µM in [3]; above 100 µM in experiment [4]; 56.5 µM in [5]; above 100 µM in experiment [6]. The TGI in experiment [7] was above 100 µM; in experiment [8], 89.3 µM; in experiment [9], above 100 µM; in experiment [10], above 100 µM.

On to `Cc1ccc(-c2c(C#N)c(-c3ccc([N+](=O)[O-])cc3)c(C#N)c(=O)n2NS(=O)(=O)c2ccccc2)cc1`, for which the TGI in [1], in experiment [2], in experiment [3], in experiment [4], in experiment [5] and in experiment [6] was above 100 µM throughout. The TGI in experiment [7], in [8], in [9] and in [10] was above 100 µM throughout.

`Cc1ccc(S(=O)(=O)NC(=O)NNc2ccc(F)cc2)cc1`: the TGI in experiment [1], in [2], in experiment [3], in experiment [4], in [5] and in [6] was above 100 µM each time. The TGI in experiment [7], in [8], in experiment [9] and in [10] was above 100 µM throughout.

For `CN1COCc2cc3cc4c(cc3nc21)OCCO4`, the TGI in [1], in [2], in [3], in experiment [4], in experiment [5] and in experiment [6] was above 100 µM throughout. Besides, the TGI in experiment [7], in experiment [8], in [9] and in experiment [10] was above 100 µM throughout.

Regarding `CCCCN(CCCC)C(=C(C(Cl)=C(Cl)Cl)[N+](=O)[O-])N(CCCC)CCCC`, the TGI in experiment [1], in experiment [2], in [3], in experiment [4], in experiment [5] and in [6] was above 100 µM each time. Also, the TGI in experiment [7], in experiment [9] and in experiment [10] was above 100 µM in each case.

On to `COC(=O)C1=C(C)NC(C)=C([N+](=O)[O-])C1c1cccc(N=O)c1` (stereo not drawn), for which the TGI turned out to be 32.9 µM in [1]; 34.5 µM in experiment [2]; 30.9 µM in experiment [3]; 41.2 µM in experiment [4]; 5.34 µM in [5]; 58.4 µM in experiment [6]. In addition, the TGI in experiment [7] was 25.4 µM; in [8] it was 33.1 µM; in experiment [9], 45.9 µM; in experiment [10] it was 29 µM.

For `COc1ccc2c(c1)CCN=C2c1ccccc1CCCCl`, the TGI was above 100 µM in experiment [1]; 54.4 µM in experiment [2]; 45.6 µM in experiment [3]; above 100 µM in experiment [4]; 52.5 µM in experiment [5]; above 100 µM in [6]. The TGI in experiment [7] was above 100 µM; in [8], 58.2 µM; in experiment [9], above 100 µM; in experiment [10], 23.4 µM.

Turning to `C=C(C)[C@@]1(O[Si](C)(C)C)CCCC[C@@H]1CC(Sc1ccccc1)Sc1ccccc1`, the TGI in experiment [1] worked out at 27.4 µM; in experiment [3], 26.5 µM; in [4], 32.1 µM; in experiment [5] it was 20.4 µM; in experiment [6], 34.5 µM; in experiment [7] it was 29 µM. In addition, the values for the TGI in [8], in experiment [9] and in experiment [10] were 34.8 µM, 32 µM and 38.9 µM, respectively.

Consider `c1ccc(C2=Nn3c(CCCCCCCCc4nnc5n4N=C(c4ccccc4)CS5)nnc3SC2)cc1`, for which the TGI in experiment [1] is above 100 µM; in experiment [2], above 100 µM; in [3], 46.4 µM; in experiment [4], above 100 µM; in [5] it was above 100 µM; in [6], above 96.1 µM. In addition, the TGI in experiment [7] was 79 µM; in [8] it was above 50.6 µM; in [9], above 100 µM; in experiment [10] it was above 100 µM.

`COC(=O)c1cc(C)ccc1CC(Cc1ccc(C)cc1)C(=O)OC` (stereo not drawn): the TGI in experiment [1], in experiment [2], in experiment [3], in [4], in experiment [5] and in experiment [6] was above 100 µM throughout. Further, the TGI is above 100 µM in [7], 80.4 µM in experiment [8], above 100 µM in [9] and above 100 µM in experiment [10].

With `Cc1c(C#N)c(N)n(C2OCC(O)C(O)C2O)c(=S)c1C#N` (stereo not drawn), the TGI in experiment [1], in experiment [2], in experiment [3], in [5], in experiment [6] and in experiment [7] was above 100 µM in each case. Also, the TGI in [8] and in experiment [9] was above 100 µM each time.

Regarding `Cc1c2ccncc2c(C)c2c1[nH]c1ccccc12`, the figures for the GI50 in experiment [1] and in experiment [7] were 1.2 µM and 0.79 µM, respectively. Further, the TGI in experiment [1] amounted to 8.55 µM; in experiment [2], 4.63 µM; in experiment [3], 2.11 µM; in [4], 3 µM; in experiment [5], 2.93 µM; in experiment [6] it was 3.62 µM. In addition, the TGI in experiment [7] was 2.6 µM; in [8], 3.88 µM; in experiment [9] it was 2.93 µM; in experiment [10], 1.83 µM.

Turning to `COC(=O)c1cc2c(cc1CC(Cc1ccc3c(c1)CCC3)C(=O)OC)CCC2` (stereo not drawn), the TGI in experiment [1], in experiment [2], in experiment [3], in [4], in [5] and in experiment [6] was above 100 µM throughout. Further, the TGI in experiment [7], in [8], in experiment [9] and in experiment [10] was above 100 µM each time.

In the case of `O=C(O)c1c2c(cc3c1CC1(Cc4ccccc4C1=O)C3)CCC2` (stereo not drawn), the TGI in experiment [1] was above 100 µM; in experiment [2] it was above 100 µM; in experiment [3], above 95.4 µM; in [4], above 100 µM; in experiment [5], 64.5 µM; in experiment [6], 96 µM. Also, the TGI in experiment [7] was above 100 µM; in [8], above 69.7 µM; in experiment [9] it was above 100 µM; in [10], 54.6 µM.

`CC(C)CCn1nc(N)c2nc3ccccc3nc21`: the TGI in experiment [1], in experiment [2], in [3], in experiment [4], in experiment [5] and in experiment [6] was above 100 µM throughout. The TGI in experiment [7], in experiment [8] and in experiment [9] was above 100 µM throughout.

As for `COc1cc2c(cc1OC)C13CC[N+]4(C)CC5=CCOC6CC(=O)N2C1C6C5CC34[O-]` (stereo not drawn), the TGI in [1], in experiment [2], in experiment [3], in [4], in experiment [5] and in [6] was above 100 µM each time. Moreover, the TGI in experiment [7], in [9] and in experiment [10] was above 100 µM throughout.

Regarding `COc1cc(OCc2ccc3nc(OC)c(OC)nc3c2)cc(OC)c1OC`, the TGI in experiment [1] is above 4.95 µM; in experiment [2], above 10 µM; in [3], above 10 µM; in experiment [4], above 10 µM; in experiment [5], above 10 µM; in [6] it was above 10 µM. Further, the TGI in experiment [7], in [8], in experiment [9] and in experiment [10] was above 10 µM each time.

On to `CN(C)P(=O)(Oc1occc1C(O)Cc1ccccc1)N(C)C` (stereo not drawn), for which the TGI in experiment [1], in [2], in experiment [3], in [4], in experiment [5] and in [6] was above 100 µM in each case. For the same compound, the TGI in [7], in [9] and in [10] was above 100 µM in each case.

As for `COc1ccc(/C=N/N2C(=O)c3c(N)c(C#N)c(-c4ccccc4)c(-c4ccccc4)c3C2=O)cc1`, the TGI in experiment [1], in experiment [2], in [3], in [4], in [5] and in experiment [6] was above 100 µM throughout. Further, the TGI in experiment [7], in experiment [9] and in experiment [10] was above 100 µM throughout.

As to `O=C(CCc1cccc(O)c1)NCCCNC(=O)CCc1cccc(O)c1`, the TGI in experiment [1], in experiment [2], in [3], in experiment [4], in experiment [5] and in experiment [6] was above 100 µM in each case. The TGI in [8], in experiment [9] and in experiment [10] was above 100 µM throughout.
